Tested on: upper respiratory mucosa
Assay: Safety tests of topical ascorbate (spray, lozenge) on upper respiratory mucosa
Conditions: Three ml oral/nasal spray in sterile water three times daily for six months
From the text: Initiation of the test sought first to assure that the designed aerosol would be safely tolerated by the IC's respiratory mucosa.

O=C1O[C@H]([C@@H](O)CO)C(O)=C1O [ascorbate]
Adverse effects of spray on upper respiratory mucosa: no adverse effects

Source: patent publication US20120141467A1, “Ascorbic acid to treat chronic obstructive lung diseases and non-Hodgkin's lymphoma” (priority 2010, published 2012)
